Source: patent EP1174152B1, “Inclusion complex of an opioid peptide with cyclodextrin” (COUNCIL OF SCIENTIFIC AND INDUSTRIAL RESEARCH, priority 2000, dated 2002)

Tests used:
[1] = tested on: rats; experiment: 30 days toxicity study by subcutaneous route in rat; format: in vivo; details: once daily for 30 consecutive days, 7.5, 15.0 and 30.0 mg/kg
Protocol: (§1) 30 days toxicity study of L-Tyrosyl-D-alanyl-glycyl-N-methylphenylanyl-glycyl-isopropylamide in rat and rhesus monkey by subcutaneous route.
(§2) Compound L-Tyrosyl-D-alanyl-glycyl-N-methylphenylalanyl-glycyl-isopropylamide dissolved in saline was given daily by subcutaneous route to groups of rats (n=10 males and 10 females in each group) and rhesus monkeys (n=2 males and 2 females in each group) once daily for 30 consecutive days. The dose levels used in rats were 0 0, 7.5, 15.0 and 30.0 mg/kg and in monkeys 0.0, 3.75, 7.5 and 15 mg/kg. Dose levels were selected on the basis of rat ED of 3.0 mg/kg and extrapolation thereof in the monkey. […]
(§3) Body weights (weekly in rats, initial and day 30 in monkeys), daily food (rat and monkeys) and water (rat only) consumption and parameters of hematology, urinalysis and blood biochemistry of the animals was recorded All the animals were sacrificed at the end of 30 days Necropsy was performed and histophathological examination of all the important organs and tissues were done. […]
(§4) During necropsy examination of the external surface of the body, all orifices, and the cranial thoracic and abdominal cavities and their contents was performed. […] Liver, kidneys, adrenals, brain heart lungs, spleen and gonads were weighed, and their rdative weights were also calculated. […]

[2] = tested on: rhesus monkeys; experiment: 30 days toxicity study by subcutaneous route in rhesus monkey; format: in vivo; details: once daily for 30 consecutive days, 3.75, 7.5 and 15 mg/kg
Protocol: as §1, §2, §3, §4

[3] = tested on: leucine amino peptidase; details: enzyme hydrolysis with leucine amino peptidase; cited from earlier work

Row | Compound | 30-day toxicity study outcome [1] | 30-day toxicity study outcome [2] | half life [3] [min]
1 | CC(C)NC(=O)CNC(=O)[C@H](Cc1ccccc1)N(C)C(=O)CNC(=O)[C@@H](C)NC(=O)[C@@H](N)Cc1ccc(O)cc1 [L-Tyrosyl-D-alanyl-glycyl-N-methylphenylalanyl-glycyl-isopropylamide] | found safe | found safe | –
2 | Leu-enkephalin | – | – | 45
